Entries after “also recorded” stand apart in the source; their conditions may differ. Where no end group is shown, it is not given here.
Key:
INS-1E cells = assay: Insulin secretion by novel peptide analogues (Example 21, FIG. 16); assay type: cell-based, rat; settings: 100 nM peptide, high glucose buffer, vs un-supplemented high glucose buffer
Procedure: Materials and methods: Rat INS-1 β-cells (passages 60-70) were cultured at 37° C. and 5% CO2 in cRPMI media (RPMI 1640 supplemented with 10% fetal bovine serum, 50 IU/mL penicillin, 50 mg/L streptomycin, 10 mM HEPES, 2 mM L-glutamine, 1 mM sodium pyruvate, and 50 μM beta-mercaptoethanol) unless otherwise stated. INS-1 cells were seeded in 96-well plates (2×10^3 cells/well) in cRPMI medium and following overnight incubation, the cells were washed in PBS before pre-incubation for 120 min at 37° C. in Krebs-Ringer bicarbonate buffer, pH 7.4, supplemented with 10 mM HEPES, 0.1% bovine serum albumin and 2.8 mM glucose. Following pre-incubation, the buffer was exchanged with fresh Krebs-Ringer buffer as described above and supplemented with specific glucose concentrations and peptides for the individual experiments as described below. Immediately after 60 minutes incubation at 37° C., an aliquot of the buffer was removed and frozen for subsequent insulin ELIZA assay.
In order to correct for the variance between experiments, all values were normalized to, and expressed as percentage of the average value of the high glucose control in the individual experiments. The analogues were subsequently ranked according to performance (FIG. 16).

mouse pancreatic islets = assay: Insulin secretion from isolated mouse pancreatic islets (Examples 5 and 7); assay type: cell-based; settings: 60 min
Procedure: Mouse pancreatic islets were isolated from 8-week old C57BL/6J male mice (Taconic). Mice were sacrificed by an overdose of isoflurane and cervical dislocation. 3 ml of 0.9 U/ml collagenase P was injected into the pancreatic duct to inflate the pancreas. The Pancreas was then removed and collagen digested for 19 min at 37° C. The samples Were vigorously shaken to disrupt the tissue. The digest was transferred into ice cold Hank's Balanced Salt Solution (HBSS) with Ca^2+ and Mg^2+. The suspension was allowed to sit for 10 min to allow the islet to sink, and the islets were washed in fresh HBSS four times. The islets were then hand-picked and sorted according to size. Islets (n=3 per well in a 96 well plate) were pre-incubated in KRB buffer during 10 min 37° C., pH 7.4, supplemented with 10 mM HEPES, 0.1% bovine serum albumin. After pre-incubation, the buffer was changed and islets were incubated at different test conditions in new KRB buffer with 0.1% bovine serum albumin (non-treated ctrl, FOL-005 peptide, or GLP-1) for 60 min at 37° C. Immediately after incubation, an aliquot of the buffer was removed and frozen for subsequent assay of insulin.
Mouse pancreatic islets were isolated from 8-week old C57BL/6J male mice as described under example 5. The islets were then hand-picked and sorted according to size. Islets (n=5 per well in a 96 well plate) were pre-incubated in 200 μl KRB buffer during 10 min 37° C., pH 7.4, supplemented with 10 mM HEPES, 0.1% bovine serum albumin. Following pre-incubation, the buffer was changed and islets were incubated in different test conditions in new KRB buffer with 0.1% bovine serum albumin (non-treated ctrl, FOL-014 peptide, and GLP-1) for 60 min at 37° C. Immediately after incubation, an aliquot of the buffer was removed and frozen for subsequent assay of insulin.

isolated mouse islets = assay: Insulin and glucagon secretion from isolated mouse islets (Example 12); assay type: cell-based; settings: 100 nM
Procedure: Twelve-week-old male C57/bl6 mice were euthanized with isoflurane and cervical dislocation. After clamping the hepatic ducts, 3 ml of 0.9 U/ml collagenase P was injected into the bile duct to inflate the pancreas. The pancreas was then removed and digested for 19 min at 37° C. The samples were vigorously shaken to disrupt the tissue. The digest was quickly transferred into ice cold Hank's Balanced Salts Solution with Ca^2+ and Mg^2+. The suspension was allowed to sit for 8 min to allow the islet to sink, and the islets were washed in the same manner four times. The islets were then handpicked and sorted according to size.
Freshly isolated islets were seeded in groups of 5 in a 96-well plate and preincubated for 1 h at 37° C. in a Krebs-Ringer bicarbonate buffer (pH 7.4). The islets were incubated for 1 h at 37° C. in Krebs-Ringer buffered solution supplemented with 0.6 or 6 μM FOL-014 or 100 nM GLP-1 or left unsupplemented for control. Immediately after incubation, the medium was removed for assays of insulin and glucagon using Mercodia's ELISA kits. The effect of FOL-014 on insulin (FIGS. 8A and B) and glucagon (FIGS. 8C and D) secretion from isolated mouse islets was measured in the presence of low glucose (2.8 mM; FIGS. 8A and C) or high glucose (16.7 mM; FIGS. 8B and D) concentrations.

INS-1 cells [1] = assay: Proliferation of INS-1 cells ([methyl-3H] thymidine incorporation); assay type: cell-based, rat
Procedure: To investigate if FOL-005 and FOL-014 could induce proliferation of β-cells we used INS-1 cells. Rat INS-1 cells were seeded in 96-well plates in RPMI medium with supplement and after 2 hours the medium was changed to RPMI without supplement. During the proliferation experiment the cells were incubated at different test conditions (FOL-005, FOL-014, coated or in solution, 48 h incubation) and during the last 20 hours of culture period the cells were pulsed with 1 μ Ci/well of [methyl-3H] thymidine. The cells were then harvested onto glass fiber filters using a FilterMate harvester. The filters were air dried, and the bound radioactivity was measured using a liquid scintillation counter. To study whether FOL-005 influenced β-cell proliferation, INS-1 cells were treated with increasing amounts of soluble FOL-005 (0.06-6 μM) during 48 hours and proliferation was measured with radiolabeled thymidine incorporation into newly synthesized DNA.

INS-1 cells [2] = assay: Glucotoxicity-induced apoptosis of INS-1 cells (Annexin V staining, caspase-3 activity); assay type: cell-based, rat; settings: 20 mM glucose, 48 h, vs 20 mM glucose alone
Procedure: Since glucotoxicity in pancreatic β-cells is a well-established process in type 2 diabetes we next investigated the protective effects of FOL-005 on β-cells during glucotoxic conditions. First we confirmed that 20 mM glucose induced cell apoptosis in INS cells after 48 h of exposure. High glucose (20 mM) containing RPMI medium induced more Annexin V positive cells and more caspase-3 activity in INS cells compared to cells incubated with medium containing 5 mM glucose (FIG. 2A-B). […] The rate of apoptosis in INS-1 cells was measured with either Caspase-3 Assay Kit or stained with Annexin V Apoptosis Detection Kit with 7-AAD. Caspase-3 activity was measured with fluorescence at an excitation wavelength of 380 nm and an emission wavelength of 440 nm. Caspase-3 activity was then normalized to protein concentration in each well. Measurements of
Annexin V stained cells were performed using a CyAn ADP flow cytometer and analyzed with Summit V4.3 software.

INS-1 β-cells = assay: Insulin secretion from INS-1 cells (Examples 4 and 6); assay type: cell-based, rat; settings: 6 μM peptide
Procedure: To investigate the stimulatory effect of FOL-005 on insulin secretion, INS-1 β-cells were used in the following experiments. Cells were seeded overnight in cRPMI and then washed with PBS before pre-incubation for 60 min at 37° C. in Krebs-Ringer bicarbonate buffer (KRB), pH 7.4, supplemented with 10 mM HEPES, 0.1% bovine serum albumin. After pre-incubation, the buffer was changed and the INS-1 cells were incubated at different test conditions (0 mM, 5 mM or 20 mM glucose) and stimulated with peptide FOL-005 or FOL-015 (SEQ ID NO: 158) or left untreated during 60 min at 37° C. Immediately after incubation, an aliquot of the buffer was removed and frozen for subsequent assay of insulin with an insulin radioimmunoassay kit.
INS-1 β-cells were used to investigate the stimulatory effect of FOL-014 on insulin secretion. Cells were seeded overnight and then washed with PBS before pre-incubation for 60 min at 37° C. in Krebs-Ringer bicarbonate buffer (KRB), pH 7.4, supplemented with 10 mM HEPES, 0.1% bovine serum albumin. After pre-incubation, the buffer was changed and the INS-1 cells were incubated in new KRB buffer supplemented with 10 mM HEPES, 0.1% bovine serum albumin and stimulated with peptide FOL-014 or left untreated during 60 min at 37° C. Immediately after incubation, an aliquot of the buffer was removed and frozen for subsequent assay of insulin.

Substance: DSIELSYGIK (MISC_FEATURE - peptide) [FOL-059]
- insulin secretion (INS-1E cells): increased the insulin secretion as compared with cells treated with an un-supplemented high glucose buffer

Substance: GLP-1: native glucagon-like peptide-1, metabolic hormone that stimulates insulin secretion; comparator (HAEGTFTSDVSSYLEGQAAKEFIAWLVKGR; ends and bridges not checked; UniProt P01275 98-127, looked up) [reference compound]
- insulin secretion (mouse pancreatic islets; Example 5, 100 nM, vs unstimulated control islets): secreted more insulin compared to unstimulated control islets
- insulin secretion (mouse pancreatic islets; Example 7, 100 nM): did not affect insulin secretion; also recorded: had no effect on insulin secretion
- glucagon secretion (isolated mouse islets; high glucose (16.7 mM)): efficiently reduced glucagon secretion
- insulin secretion (isolated mouse islets; high glucose (16.7 mM)): significantly increased insulin secretion
- glucagon secretion (isolated mouse islets; low glucose (2.8 mM)): failed to inhibit glucagon secretion in low glucose conditions
- insulin secretion (isolated mouse islets; low glucose (2.8 mM)): enhanced insulin secretion also in low glucose samples

Substance: VDTYDGDISVVYGLR (MISC_FEATURE - peptide, FOL-005)
- proliferation of INS-1 cells (INS-1 cells [1]; peptide in solution, 0.06-6 μM, 48 hours): stimulated INS-1 cell proliferation; also recorded: induced increasing proliferation of INS-1 cells
- proliferation of INS-1 cells (INS-1 cells [1]; wells coated with peptide and blocked with BSA, vs BSA coated control wells): stimulated proliferation compared to control; also recorded: induced more proliferation of β-cells compared to only BSA coated control
- apoptotic cells (Annexin V positive) (INS-1 cells [2]): decreased cell apoptosis; also recorded: reduced the level of apoptotic cells compared to 20 mM glucose alone
- caspase-3 activity (INS-1 cells [2]): decreased cell apoptosis; also recorded: diminished the rate of glucotoxicity-induced caspse-3 activity
- insulin secretion at 20 mM glucose compared with 5 mM glucose (INS-1 β-cells): responded with more insulin secretion compared to FOL-005 stimulated cells incubated with 5 mM glucose
- insulin release (INS-1 β-cells; 5 mM or 20 mM glucose): responded with insulin secretion; also recorded: stimulated insulin release
- insulin release (INS-1 β-cells; non glucose containing media, 60 min, vs unstimulated control and FOL-015): secreted more insulin compared to unstimulated control cells or to cells stimulated with the FOL-015 control peptide; also recorded: increased
- insulin secretion (mouse pancreatic islets; Example 5, 6 μM, vs unstimulated control islets): secreted more insulin compared to unstimulated control islets

Substance: EIDSIELSYGIK (MISC_FEATURE - peptide) [FOL-057]
- insulin secretion (INS-1E cells): increased the insulin secretion as compared with cells treated with an un-supplemented high glucose buffer

Substance: IDSIELSYGIK (MISC_FEATURE - peptide) [FOL-058]
- insulin secretion (INS-1E cells): increased the insulin secretion as compared with cells treated with an un-supplemented high glucose buffer
